Measurements taken from ChEMBL document CHEMBL6078680, “Improving the Stability and Anti-Infective Activity of Sea Turtle AMPs Using Multiple Structural Modification Strategies” (J Med Chem, 2024).
Active and inactive are the calls of the source. The calls are words filed in the database; no cut-off is given here. Positions of bridges follow the written chain, without caps; N, C: chain ends. Non-standard residues stand in square brackets, D forms with d. Residues, ends and D or L forms follow the SMILES beside them. Orn = NCCC[C@H](N)C(=O)O

Experiments:
[1] = test system: Peritoneal macrophage; experiment: Antiinflammatory activity in mouse Peritoneal macrophage cells assessed as inhibition of LPS-induced TNF-alpha production at 20 microg/ml incubated for 6 hrs by ELISA analysis; type: functional, cell-based; details: dose 20.0 µg/ml
[2] = test system: Acinetobacter baumannii; experiment: In vivo antibacterial activity against Acinetobacter baumannii ATCC19606 infected in BALB/c mouse assessed as reduction in bacterial load at 15 mg/kg, ip; type: functional, organism-based; details: time 3.0 hrs
[3] = Acute toxicity in BALB/c mouse assessed as mortality at 15 mg/kg, iv measured for 24 hrs; type: organism-based; details: in vivo, read-out: Activity
[4] = test system: Escherichia coli; experiment: Antimicrobial activity against Escherichia coli ATCC 25922 measured at 8 hrs in presence of mouse serum; type: functional, organism-based
[5] = test system: Acinetobacter baumannii; experiment: In vivo antibacterial activity against Acinetobacter baumannii ATCC19606 infected in BALB/c mouse assessed as reduction in bacterial load in liver at 15 mg/kg, ip measured after 12 hrs; type: functional, organism-based
[6] = molecular target: T1, Trypsin (Homo sapiens, UniProt P07477+P07478+P35030); experiment: Stability of compound assessed as trypsin (unknown origin) mediated drug degradation […] measured at 24 hrs by RP-HPLC analysis; type: ADME, protein assay; details: read-out: Activity
[7] = test system: Cell membrane; experiment: Induction of outer membrane permeabilization in Escherichia coli ATCC 25922 at 5 times MIC measured for 1 hr by NPN-dye based fluorescence analysis; type: subcellular
[8] = test system: Acinetobacter baumannii; experiment: Antipersister-activity against Acinetobacter baumannii ATCC 19606 assessed as elimination of persister cells at 8 times MIC preincubated adherent persistent cells with colistin incubation for 24 hrs; type: functional
[9] = test system: Acinetobacter baumannii; experiment: Antibiofilm activity against Acinetobacter baumannii ATCC 19606 assessed as inhibition of biofilm formation at 4 to 8 times MIC incubated for 48 hrs by crystal violet staining based analysis; type: functional
[10] = test system: Escherichia coli; experiment: Antibacterial activity against Escherichia coli ATCC 25922 at 1 times MIC in presence of 25 microg/ml exogenous DNA; type: functional, organism-based
[11] = test system: Acinetobacter baumannii; experiment: In vivo antibacterial activity against Acinetobacter baumannii ATCC19606 infected in BALB/c mouse assessed as survival at 15 mg/kg, ip administered for 12 hrs and measured after 3 hrs; type: functional; details: time 15 hrs
[12] = test system: Staphylococcus aureus; experiment: Antibiofilm activity against Staphylococcus aureus CMCC 26003 assessed as inhibition of biofilm formation incubated for 48 hrs by crystal violet staining based analysis; type: functional, organism-based
[13] = test system: Acinetobacter baumannii; experiment: Antibiofilm activity against Acinetobacter baumannii ATCC 19606 assessed as inhibition of biofilm formation incubated for 48 hrs by crystal violet staining based analysis; type: functional, organism-based
[14] = Acute toxicity in BALB/c mouse assessed as effect on BUN level at 10 mg/kg, iv measured for 24 hrs; type: organism-based; details: in vivo
[15] = test system: Staphylococcus aureus; experiment: Antibiofilm activity against Staphylococcus aureus CMCC 26003 assessed as reduction in biofilm formation at 0.5 to 8 times MIC incubated for 24 hrs by crystal violet staining based analysis; type: functional; parameters: scale not given: the % may be the effect or the level left
[16] = test system: Escherichia coli; experiment: Antimicrobial activity against Escherichia coli ATCC 25922 assessed as bacterial eradication at 5 times MIC measured within 30 mins; type: functional, organism-based
[17] = test system: Staphylococcus aureus; experiment: Antimicrobial activity against Staphylococcus aureus CMCC 26003 assessed as bacterial eradication at 5 times MIC measured within 120 mins; type: functional, organism-based
[18] = test system: Escherichia coli; experiment: Antimicrobial activity against Escherichia coli ATCC 25922 assessed as fold increase in MIC measured at 8 hrs in presence of mouse serum; type: functional
[19] = test system: Cell membrane; experiment: Induction of cell membrane permeabilization in Escherichia coli ATCC 25922 by propidium iodide dye-based fluorescence assay; type: subcellular
[20] = test system: Staphylococcus aureus; experiment: Antimicrobial activity against Staphylococcus aureus CMCC 26003 assessed as fold increase in MIC measured at 8 hrs in presence of mouse serum; type: functional
[21] = test system: Escherichia coli; experiment: Antimicrobial activity against Escherichia coli ATCC 25922 assessed as fold increase in MIC incubated for 18 hrs in presence of phosphatidylglycerol; type: functional
[22] = test system: Staphylococcus aureus; experiment: Antipersister-activity against Staphylococcus aureus CMCC 26003 assessed as elimination of persister cells at 50 times MIC preincubated adherent persistent cells with colistin incubation for 24 hrs; type: functional
[23] = test system: Staphylococcus aureus; experiment: Antibiofilm activity against Staphylococcus aureus CMCC 26003 assessed as biofilm eradication at 0.5 to 2 times MIC incubated for 24 hrs by crystal violet staining based analysis; type: functional
[24] = test system: Escherichia coli; experiment: Bactericidal activity against Escherichia coli ATCC 25922 at 5 times MIC measured within 120 mins; type: functional, organism-based
[25] = test system: Escherichia coli; experiment: Antimicrobial activity against Escherichia coli ATCC 25922 assessed as fold increase in MIC incubated for 18 hrs in presence of cardiolipin; type: functional
[26] = test system: Escherichia coli; experiment: Antimicrobial activity against Escherichia coli ATCC 25922 incubated for 18 hrs in presence of CCCP; type: functional, organism-based
[27] = test system: Cell membrane; experiment: Induction of cell membrane permeabilization in Escherichia coli ATCC 25922 at 2 times MIC measured for 1 hr by propidium iodide dye-based fluorescence assay; type: subcellular
[28] = test system: Staphylococcus aureus; experiment: Antimicrobial activity against Staphylococcus aureus CMCC 26003 incubated for 18 hrs in presence of CCCP; type: functional, organism-based
[29] = test system: Acinetobacter baumannii; experiment: Antibiofilm activity against Acinetobacter baumannii ATCC 19606 assessed as inhibition of biofilm formation at 0.5 times MIC incubated for 48 hrs by crystal violet staining based analysis; type: functional
[30] = test system: RAW264.7; experiment: Cytotoxicity against mouse RAW264.7 cells upto 200 microg/ml by MTT assay; type: toxicity, cell-based; details: dose < 200 µg/ml
[31] = test system: Acinetobacter baumannii; experiment: Antimicrobial activity against Acinetobacter baumannii ATCC 19606 assessed as fold increase in MIC incubated for 18 hrs in presence of phosphatidylglycerol; type: functional
[32] = test system: Acinetobacter baumannii; experiment: Antimicrobial activity against Acinetobacter baumannii ATCC 19606 assessed as fold increase in MIC incubated for 18 hrs in presence of cardiolipin; type: functional
[33] = test system: Peritoneal macrophage; experiment: Cytotoxicity against mouse Peritoneal macrophage cells assessed as survival rate at 100 microg/ml; type: functional; details: read-out: Survival
[34] = molecular target: T1, Trypsin; experiment: Stability of compound assessed as trypsin (unknown origin) mediated drug degradation […] measured at 6 hrs by RP-HPLC analysis; type: ADME, protein assay; details: read-out: Activity
[35] = test system: Escherichia coli; experiment: Antimicrobial activity against Escherichia coli ATCC 25922 assessed as fold increase in MIC incubated for 18 hrs in presence of LPS; type: functional
[36] = test system: Acinetobacter baumannii; experiment: Antimicrobial activity against Acinetobacter baumannii ATCC 19606 assessed as fold increase in MIC incubated for 18 hrs in presence of LPS; type: functional
[37] = test system: Cell membrane; experiment: Induction of […] membrane permeabilization in Escherichia coli ATCC 25922 at 5 times MIC measured for 1 hr by NPN-dye based fluorescence analysis; type: subcellular
[38] = test system: HaCaT; experiment: Cytotoxicity against human HaCaT cells assessed as survival rate at 100 microg/ml; type: functional; details: read-out: Survival
[39] = test system: Acinetobacter baumannii; experiment: Antipersister-activity against Acinetobacter baumannii ATCC 19606 assessed as elimination of persister cells at 4 times MIC preincubated adherent persistent cells with colistin incubation for 24 hrs; type: functional
[40] = test system: Cell membrane; experiment: Induction of cell membrane permeabilization in Staphylococcus aureus CMCC 26003 at 5 times MIC measured for 1 hr by propidium iodide dye-based fluorescence assay; type: subcellular
[41] = test system: Acinetobacter baumannii; experiment: In vivo antibacterial activity against Acinetobacter baumannii ATCC19606 infected in BALB/c mouse assessed as reduction in bacterial load in abdominal cavity at 15 mg/kg, ip measured after 12 hrs; type: functional, organism-based

Compound	Activity [1]	Activity [2]	mortality at 24 h [3] [%]	Activity [5]	metabolised at 24 h [6] [%]	Activity [7] [%]	inhibition (INH) [9] [%]	Activity [10]	Activity [11] [%]	Activity [12]	Activity [13]	Activity [14]	Activity [19]	fold change (FC) [21]	Activity [22] [%]	Activity [23] [%]	fold change (FC) [25]	Activity [27] [%]	inhibition (INH) [29] [%]	Activity [30]	also measured
CC[C@H](C)[C@H](NC(=O)[C@@H](CCCNC(=N)N)NC(=O)[C@H](CO)NC(=O)[C@H](Cc1c[nH]cn1)NC(=O)[C@@H](CCCNC(=N)N)NC(=O)[C@H](CC(C)C)NC(=O)[C@@H](NC(=O)[C@@H](CCCNC(=N)N)NC(=O)CNC(=O)[C@H](CC(C)C)NC(=O)[C@H](CCC(N)=O)NC(=O)[C@@H](CCCCN)NC(=O)[C@@H](CCCNC(=N)N)NC(=O)[C@@H](NC(=O)[C@@H](CCCCN)NC(=O)[C@@H](CCCCN)NC(=O)[C@@H](N)Cc1ccccc1)C(C)C)C(C)C)C(=O)N[C@H](C(=O)N[C@H](C(=O)NCC(=O)NCC(=O)N[C@H](CCCNC(=N)N)C(=O)N[C@@H](CCSC)C(=O)N[C@H](CCCNC(=N)N)C(=O)N[C@@H](Cc1ccccc1)C(=O)O)C(C)C)[C@@H](C)O	Active	Time-dependent-effect	0	Active	< 60	100	80	inactive	>60	Active	Active										Activity [4]: inactive; Activity [8]: 97.1%
CC[C@H](C)[C@H](NC(=O)[C@H](CCCNC(=N)N)NC(=O)[C@H](CO)NC(=O)[C@H](Cc1c[nH]cn1)NC(=O)[C@H](CCCNC(=N)N)NC(=O)[C@H](CC(C)C)NC(=O)[C@@H](NC(=O)[C@H](CCCNC(=N)N)NC(=O)CNC(=O)[C@H](CC(C)C)NC(=O)[C@H](CCC(N)=O)NC(=O)[C@H](CCCCN)NC(=O)[C@H](CCCNC(=N)N)NC(=O)[C@@H](NC(=O)[C@H](CCCCN)NC(=O)[C@H](CCCCN)NC(=O)[C@@H](N)Cc1ccccc1)C(C)C)C(C)C)C(=O)N[C@H](C(=O)N[C@H](C(=O)NCC(=O)NCC(=O)N[C@@H](CCCNC(=N)N)C(=O)N[C@@H](CCSC)C(=O)N[C@@H](CCCNC(=N)N)C(=O)N[C@@H](Cc1ccccc1)C(=O)O)C(C)C)[C@@H](C)O	Active	Time-dependent-effect	0	Active					>60	Active	Active	Non-toxic	Dose-dependent-effect	16	50	20	8	> 90	10	Non-toxic	Activity [15]: 40%; Activity [16]: Active; Activity [17]: Active; fold change (FC) [18]: 8; fold change (FC) [20]: 16; Activity [24]: Active; Activity [26]: Dose-dependent-effect; Activity [28]: Dose-dependent-effect; fold change (FC) [31]: 16; fold change (FC) [32]: 8
CC[C@H](C)[C@H](NC(=O)[C@H](CCCNC(=N)N)NC(=O)[C@H](CO)NC(=O)[C@@H]1CSSC[C@H](N)C(=O)N[C@@H](Cc2ccccc2)C(=O)N[C@@H](CCCCN)C(=O)N[C@@H](CCCCN)C(=O)N[C@@H](C(C)C)C(=O)N[C@@H](CCCNC(=N)N)C(=O)N[C@@H](CCCCN)C(=O)N[C@@H](CCC(N)=O)C(=O)N[C@@H](CC(C)C)C(=O)NCC(=O)N[C@@H](CCCNC(=N)N)C(=O)N[C@@H](C(C)C)C(=O)N[C@@H](CC(C)C)C(=O)N[C@@H](CCCNC(=N)N)C(=O)N[C@@H](Cc2c[nH]cn2)C(=O)N1)C(=O)N[C@H](C(=O)N[C@H](C(=O)NCC(=O)NCC(=O)N[C@@H](CCCNC(=N)N)C(=O)N[C@@H](CCSC)C(=O)N[C@@H](CCCNC(=N)N)C(=O)N[C@@H](Cc1ccccc1)C(=O)O)C(C)C)[C@@H](C)O (H-CFKKVRKQLGRVLRHCSRITVGGRMRF-OH; disulfide 1-16)	Active	Time-dependent-effect	0	Active			80		>60	Active	Active	Non-toxic		16	50	20	8		10		viability at 100 µg/mL [33]: > 80%; metabolised at 6 h [34]: 68%; fold change (FC) [35]: 4; fold change (FC) [36]: 4; Activity [37]: Active; viability at 100 µg/mL [38]: > 80%; fold change (FC) [31]: 16; fold change (FC) [32]: 8
CC[C@H](C)[C@H](NC(=O)[C@H](CCCN)NC(=O)[C@H](CO)NC(=O)[C@H](Cc1c[nH]cn1)NC(=O)[C@H](CCCN)NC(=O)[C@H](CC(C)C)NC(=O)[C@@H](NC(=O)[C@H](CCCN)NC(=O)CNC(=O)[C@H](CC(C)C)NC(=O)[C@H](CCC(N)=O)NC(=O)[C@H](CCCN)NC(=O)[C@H](CCCN)NC(=O)[C@@H](NC(=O)[C@H](CCCN)NC(=O)[C@H](CCCN)NC(=O)[C@@H](N)Cc1ccccc1)C(C)C)C(C)C)C(=O)N[C@H](C(=O)N[C@H](C(=O)NCC(=O)NCC(=O)N[C@@H](CCCN)C(=O)N[C@@H](CCSC)C(=O)N[C@@H](CCCN)C(=O)N[C@@H](Cc1ccccc1)C(=O)O)C(C)C)[C@@H](C)O (H-F[Orn][Orn]V[Orn][Orn]QLG[Orn]VL[Orn]HS[Orn]ITVGG[Orn]M[Orn]F-OH)	Active	Time-dependent-effect	0	Active	< 60	100		inactive	>60	Active	Active	Non-toxic	Dose-dependent-effect		50	20		> 90	10	Non-toxic	Activity [39]: 74.5%; Activity [40]: 24.6%; fold change (FC) [35]: 16; Activity [41]: Active; fold change (FC) [36]: 16
